These results are taken from patent publication US8575375B2, “Androstane and pregnane steroids with potent allosteric GABA receptor chloride ionophore modulating properties” (Research Triangle Institute, priority 2007, dated 2013).

The test system of data set [1] is GABAA receptor. As to the kind of experiment: [3H]Flunitrazepam binding assay (enhancement) in rat brain cerebral cortex homogenates. Conditions: for [3H]Flunitrazepam Emax: percentage of Emax determined for allopregnanolone; for EC50: rat cortical membranes, 1.0 μM GABA, 1.0 nM [3H]flunitrazepam, mean±SD. How it is done:
(§1) Tissue preparation. Rat brain cerebral cortex homogenates and the binding assays were conducted essentially as described (Carter et al., 1997). Briefly, adult male Sprague-Dawley rats (Charles River Laboratories, Raleigh, N.C.) were killed by excess CO2 asphyxiation, decapitated, and their brain rapidly removed and frozen on dry ice before being stored −76° C. The frozen cortices were placed in 10 volumes of an ice-cold 0.32 M sucrose solution and homogenized with a Teflon-glass homogenizer. The homogenate was centrifuged at 1500×g (10 min at 4° C.). The supernatant was retained and centrifuged at 10,000×g (20 min at 4° C.), yielding the P2 pellet. The P2 pellet was resuspended in an equal volume of a 50 mM Na+/K+ phosphate buffer containing 200 mM NaCl (pH 7.4) and centrifuged at 10,000×g (10 min at 4° C.). The pellet was washed twice more, resuspended in 1/10 volume of buffer and stored at −76° C. until the time of assay.
[^3H]Flunitrazepam binding assay. This assay was conducted as described for the [^35S]TBPS assay except that the assays contained 20 μg tissue homogenate, 1.0 μM GABA and 1.0 nM [^3H]flunitrazepam (74.1-85 Ci/mmol). Clonazepam (1.0 μM) was used to determine nonspecific binding.

Data set [2] deals with GABAA receptor. As to the kind of experiment: [35S]TBPS binding assay in rat brain cerebral cortex homogenates. The conditions noted are these: rat cortical membranes, 6.25 μM GABA, 2 nM [35S]TBPS; mean±SD. The method, then: as §1
[^35S]TBPS binding assays. These assays were carried out in 1.4 mL polypropylene tubes (Matrix Technologies, Hudson, N.H.). In a final volume of 0.5 mL, each tube contained 100 μL cortical membrane suspension (40 μg of protein, added last) 2 nM [^35S]TBPS (64-165 Ci/mmol), 6.25 μM GABA and one of six different concentrations of test compound added as 5 μL in 100% DMSO (1% final DMSO concentration). The test compounds were added to the assay tubes using a BiomekFX automated liquid handler with 96-well head (Beckman-Coulter, Fullerton, Calif.). Nonspecific binding was determined in the presence of 200 μM picrotoxin. The assays were incubated for 2 h at RT before being terminated by vacuum filtration through 96-well GF/B glass filter plates using a 96-well harvester (Brandel Scientific, Gaithersburg, Md.). Prior to harvesting, the filter plates were pre-soaked for 20 min in buffer containing 0.15% BSA and 0.1% PEI. The radioactivity remaining on the filter was determined in a TopCount 12-detector scintillation counter (Packard Instruments, Meriden, Conn.) using 20 μl of MicroScint20 (Packard Instruments) per well and standard liquid scintillation counting techniques.

In data set [3] the test system is pentylenetetrazole (PTZ) induced seizures. As to the kind of experiment: PTZ seizure test. The data set is classed as in vivo. The conditions noted are these: FIG. 3; mice. The method, then:
(§2) Male NIH Swiss mice (25-30 g) were housed two per cage. Animals were kept in a vivarium (temperature 22-26° C.; humidity 40-50%) with an artificial 12-h light/dark cycle and free access to food and water. Animals were allowed to acclimate to the vivarium for at least 5 days. The experiments were performed during the light phase of the light/dark cycle (between 9:30 AM and 3:30 PM), after at least a 30-min period of acclimation to the experimental room. Animals were maintained in facilities fully accredited by the Association for Assessment and Accreditation of Laboratory Animal Care, and experiments were performed under protocols approved by the Animal Care and Use Committee of the National Institute of Neurological Disorders and Stroke in strict compliance with the Guide for the Care and Use of Laboratory Animals of the National Research Council (National Academy Press, Washington, D.C.
Solutions of the steroids were made fresh daily in 40% hydroxypropyl-β-cyclodextrin in sterile 0.9% saline. Further dilutions were made using sterile saline. The steroids were injected intraperitoneally. The convulsant agent pentylenetetrazol (PTZ; Sigma-Aldrich) was dissolved in saline immediately before use. […]
The PTZ seizure test was carried out as described (Kokate et al., 1994). […] Mice failing to show clonic seizures lasting longer than 5 s were scored as protected. […]

In data set [4] the test system is electrically (6 Hz) induced seizures. Briefly: 6-Hz seizure test. The format is in vivo. Conditions: FIG. 3; mice. The method, then:
as §2
Solutions of the steroids were made fresh daily in 40% hydroxypropyl-β-cyclodextrin in sterile 0.9% saline. Further dilutions were made using sterile saline. The steroids were injected intraperitoneally. The convulsant agent pentylenetetrazol (PTZ; Sigma-Aldrich) was dissolved in saline immediately before use. All drug solutions were administered in a volume equaling 0.01 mL/g of the animal's body weight. […]

Data set [5] concerns elevated zero maze behaviour. As to the kind of experiment: Elevated zero maze test of anxiolytic activity. The format is in vivo. The conditions noted are these: therapeutic doses, mice. The method, then:
as §2, with “D.C. […]” for “D.C.”
Anxiolytic activity was assessed with the elevated zero-maze as described (Kaminski et al., 2006). […] Five-min test sessions were video-recorded with a tripod-mounted camcorder. Percent time in open areas and number of entries into open areas were scored from the taped records using Observer 3.0 software (Noldus, Wageningen, The Netherlands). […] Dose-response data were analyzed by one-way analysis of variance. […]

For orientation: melting point means the temperature of the solid-liquid transition. One may read the EC50 as the concentration giving half of the maximal effect. By IC50 is commonly meant the concentration that inhibits the measured activity by half. A lower IC50 goes with greater potency.

Take `CN(C)c1ccc([C@H]2C[C@]3(C)[C@@H](O)CC[C@H]3[C@@H]3CC[C@H]4C[C@](C)(O)CC[C@@H]4[C@H]32)cc1.Cl`: the melting point was 230 to 232 °C (dec.).
For `C[C@]12CC[C@@H](O)C[C@@H]1CC[C@@H]1[C@@H]2CC[C@]2(C)[C@@H]([N+](=O)[O-])CC[C@@H]12` [Compound A2-A, 17β-Nitro-5α-androstan-3α-ol], in data set [1], the “[3H]Flunitrazepam Emax” value amounted to 103% and the EC50 was found to be 0.024 ± 0.0025 µM. Moreover, in data set [2], the half-maximal inhibitory concentration (IC50) was found to be 0.013 ± 0.00013 µM. Further, the “reduction of chemically (PTZ) induced seizures” value in data set [3] is given as “reduce”. Moreover, the “reduction of electrically (6 Hz) induced seizures” value in data set [4] is reported as “reduce”. The “percentage of time spent in open arms of the maze” value in data set [5] (FIG. 1A) is on record as “significantly enhanced”. Besides, in data set [5] (FIG. 1B), the “number of entries (open arms)” value is listed as “significantly enhanced”.
As to `C[C@@]1(O)CC[C@@]2(C)[C@@H](CC[C@@H]3[C@@H]2CC[C@]2(C)[C@@H]([N+](=O)[O-])CC[C@@H]32)C1` [Compound A2-B, 3α-Hydroxy-3β-methyl-17β-nitro-5α-androstane], the melting point fell in the range of 211 to 213 °C. For the same compound, in data set [1], the “[3H]Flunitrazepam Emax” value is 99.1% and the EC50 is 0.0335 ± 0.0049 µM. Also, the IC50 in data set [2] is 0.0179 ± 0.00619 µM.
Compound `CS[C@H]1CCC2C3CC[C@H]4C[C@H](O)CC[C@]4(C)C3CC[C@@]21C` (stereo partly drawn) [Compound B-5, 3α-Hydroxy-17β-thiomethyl-5α-androstane] showed a melting point of 151 to 153 °C. Besides, in data set [1], the “[3H]Flunitrazepam Emax” value was determined as 131.7% and the EC50 is 0.0759 ± 0.0124 µM. In data set [2], this compound showed a half-inhibitory concentration (IC50) of 0.032 ± 0.00519 µM.
`CN(C)c1ccc([C@H]2C[C@@]3(C)C(CC[C@@H]3[N+](=O)[O-])C3CC[C@H]4C[C@](C)(O)CCC4C32)cc1` (stereo partly drawn) [Compound C-8, 11β-[4-(N,N-Dimethylamino)phenyl]-3α-hydroxy-3β-methyl-5α-17β-nitro-estrane]: in data set [1], the “[3H]Flunitrazepam Emax” value was 135% and the EC50 was determined as 0.0395 ± 0.0206 µM. In data set [2], this compound displayed an IC50 of 0.00979 ± 0.00193 µM.
